Data: patent publication US9623014B2 (Entasis Therapeutics Limited, priority 2012, dated 2017)
≈ marks a conversion by molar mass, not a printed value. Structures can show the parent of a compound that is named as a salt.

Tests used:
Escherichia coli = experiment: MIC, broth microdilution (CLSI); type: cell-based; settings: Escherichia coli; compound alone
Description: (§1) Minimum Inhibitory Concentrations (MICs) were determined by the broth microdilution method in accordance with the Clinical and Laboratory Standards Institute (CLSI) guidelines. Clinical Laboratory Standards Institute: Methods for Dilution Antimicrobial Susceptability Tests for Bacteria That Grow Aerobically (8th Ed. (2009)) M07-A8. In brief, organism suspensions were adjusted to a 0.5 McFarland standard and further diluted to yield a final inoculum between 3×10^5 and 7×10^5 colony-forming units (CFU)/mL. Bacterial inocula were made in sterile, cation adjusted Mueller-Hinton Broth (Beckton Dickinson) for either Escherichia coli, Klebsiella pneumoniae, or Pseudomonas aeruginosa. Haemophilus influenzae bacterial inocula were made in sterile, cation adjusted Mueller-Hinton Broth (Beckton Dickinson) containing 0.5% yeast extract (Beckton Dickinson) plus 15 μg/ml Bovine Hematin (Sigma) and 15 μg/ml β-nicotinamide adenine dinucleotide (Sigma). Bacterial inocula were made in sterile, cation adjusted Mueller-Hinton Broth (Beckton Dickinson) for Staphylococcus aureus or sterile, cation adjusted Mueller-Hinton Broth containing 2.5% lysed horse blood (Hema Resource & Supply Inc.) for Streptococcus pneumoniae and Streptococcus pyogenes. An inoculum volume of 100 uL was added to wells (using a Tecan EVO robot) containing 2 uL of DMSO containing 2-fold serial dilutions of drug. […] All inoculated microdilution trays were incubated in ambient air at 35° C. for 18-24 hours. Following incubation, the lowest concentration of the drug that prevented visible growth as read at OD600 nm was recorded as the MIC. Performance of the assay was monitored by the use of laboratory quality-control strains and commercially available control compounds with defined MIC spectrums, in accordance with CLSI guidelines.

Haemophilus influenzae = experiment: MIC, broth microdilution (CLSI); type: cell-based; settings: Haemophilus influenzae; compound alone; read-out: MIC H. influenzae
Description: as §1

Klebsiella pneumoniae = experiment: MIC, broth microdilution (CLSI); type: cell-based; settings: Klebsiella pneumoniae; compound alone; read-out: MIC K. pneumon.
Description: as §1

Pseudomonas aeruginosa = experiment: MIC, broth microdilution (CLSI); type: cell-based; settings: Pseudomonas aeruginosa; compound alone; read-out: MIC P. aeruginosa
Description: as §1

Streptococcus pneumoniae = experiment: MIC, broth microdilution (CLSI); type: cell-based; settings: Streptococcus pneumoniae; compound alone; read-out: MIC S. pneumon.
Description: as §1

Streptococcus pyogenes = experiment: MIC, broth microdilution (CLSI); type: cell-based; settings: Streptococcus pyogenes; compound alone; read-out: MIC S. pyogenes
Description: as §1

S. aureus (MRSA) = experiment: MIC, broth microdilution (CLSI); type: cell-based, Staphylococcus aureus; settings: Staphylococcus aureus, MRSA; compound alone
Description: as §1

[1] = system: Klebsiella pneumoniae KPC2; experiment: MIC alone against β-lactamase producing strain; type: cell-based; settings: Klebsiella pneumoniae, KPC2; substance alone
Description: as §1

[2] = system: Pseudomonas aeruginosa AmpC (first AmpC column); experiment: MIC alone against β-lactamase producing strain; type: cell-based; settings: substance alone, column 2
Description: as §1

[3] = system: Pseudomonas aeruginosa AmpC (second AmpC column); experiment: MIC alone against β-lactamase producing strain; type: cell-based; settings: substance alone, column 4
Description: as §1

[4] = system: Pseudomonas aeruginosa PER-1, OXA-10; experiment: MIC alone against β-lactamase producing strain; type: cell-based; settings: Pseudomonas aeruginosa; substance alone
Description: as §1

S. aureus (MSSA) = experiment: MIC, broth microdilution (CLSI); type: cell-based, Staphylococcus aureus; settings: Staphylococcus aureus, MSSA; compound alone
Description: as §1

[5] = system: Klebsiella pneumoniae KPC2; experiment: Synergy with β-lactams (MIC of β-lactam at fixed inhibitor concentration); type: cell-based; settings: MIC of ceftazidime + inhibitor at fixed 4 ug/ml
Description: Synergy with β-lactams was assessed against several organisms producing a variety of β-lactamases belonging to different classes. Bush & Jacoby, Updated Functional Classification of β-Lactamases, Antimicrobial Agents and Chemotherapy, 54:969-76 (2010). In the assays, growth inhibitory activity (MIC) was measured using either two-fold dilutions of the partner β-lactam at a fixed concentration of compounds of formula (I). Compounds were prepared in DMSO, and MIC determinations using the compound of formula (I)/β-lactam combinations were done according to the CLSI guidelines. Clinical Laboratory Standards Institute: Methods for Dilution Antimicrobial Susceptability Tests for Bacteria That Grow Aerobically (8th Ed. (2009)) M07-A8. Synergy was defined as a four-fold or more reduction in the MIC of the β-lactam in the presence of the compound of formula (I), compared to the β-lactam alone.

| SMILES | MIC (Escherichia coli) | MIC (Haemophilus influenzae) | MIC (Klebsiella pneumoniae) | MIC (Pseudomonas aeruginosa) | MIC (Streptococcus pneumoniae) | MIC (Streptococcus pyogenes) | MIC (S. aureus (MRSA)) | MIC [1] | MIC [2] | MIC [3] | MIC [4] | MIC (S. aureus (MSSA)) | MIC Klebsiella pneumoniae KPC2 [5] |
| --- | --- | --- | --- | --- | --- | --- | --- | --- | --- | --- | --- | --- | --- |
| CC(C)C1=C[C@@H](C(N)=O)N2C[C@@H]1N(OS(=O)(=O)O)C2=O.[Na] [Example 4, (2S,5R)-2-carbamoyl-4-isopropyl-7-oxo-1,6-diazabicyclo[3.2.1]oct-3-en-6-yl hydrogen sulfate sodium salt] | > 200 µg/mL | > 200 µg/mL | > 200 µg/mL | > 200 µg/mL | 200 µg/mL | 50 µg/mL | > 200 µg/mL | > 64 µg/mL | > 64 µg/mL | > 64 µg/mL | > 64 µg/mL |  |  |
| CC1=C[C@@H](CO)N2C[C@@H]1N(OS(=O)(=O)[O-])C2=O.[Na+] [Example 16, (2S,5R)-2-(hydroxymethyl)-4-methyl-7-oxo-1,6-diazabicyclo[3.2.1]oct-3-en-6-yl hydrogen sulfate Sodium Salt] | 100 µg/mL | 50 µg/mL | 100 µg/mL | > 200 µg/mL | 50 µg/mL | 50 µg/mL | > 200 µg/mL | 8 µg/mL | > 16 µg/mL | > 16 µg/mL | > 16 µg/mL | 100 µg/mL |  |
| CC(C)(C)OC(=O)N1CCC(NC(=O)[C@@H]2C=C[C@@H]3CN2C(=O)N3OS(=O)(=O)O)CC1 [Example 14, (2S,5R)-2-(1-(tert-butoxycarbonyl)piperidin-4-ylcarbamoyl)-7-oxo-1,6-diazabicyclo[3.2.1]oct-3-en-6-yl sulfate sodium salt] | > 200 µg/mL | 12.5 µg/mL | > 200 µg/mL | > 200 µg/mL | 100 µg/mL | 100 µg/mL | > 200 µg/mL |  |  |  |  | 100 µg/mL |  |
| CC(C)(O/N=C(\C(=O)N[C@@H]1C(=O)N2C(C(=O)[O-])=C(C[n+]3ccccc3)CS[C@H]12)c1csc(N)n1)C(=O)O [Ceftazidime, ceftazidime, reference compound] |  |  |  |  |  |  |  | 256 µg/mL (≈ 468 µM) | 128 µg/mL (≈ 234 µM) | 32 µg/mL (≈ 58.5 µM) | 256 µg/mL (≈ 468 µM) |  |  |
| CC1=C[C@@H](C(=O)NCCN)N2C[C@@H]1N(OS(=O)(=O)O)C2=O [Example 6, (2S,5R)-2-(2-aminoethylcarbamoyl)-4-methyl-7-oxo-1,6-diazabicyclo[3.2.1]oct-3-en-6-yl hydrogen sulfate] | > 200 µg/mL | > 200 µg/mL | > 200 µg/mL | 25 µg/mL | 25 µg/mL | 25 µg/mL | > 200 µg/mL | 0.25 µg/mL | 16 µg/mL | 16 µg/mL | 16 µg/mL | 200 µg/mL |  |
| CC(=O)NCCC1=C[C@@H](C(N)=O)N2C[C@@H]1N(OS(=O)(=O)[O-])C2=O.[Na+] [Ex. 25, (2S,5R)-4-(2-acetamidoethyl)-2-carbamol-7-oxo-1,6-diazabicyclo[3.2.1]oct-3-en-6-yl sulfate sodium salt] |  |  |  |  |  |  |  |  |  |  |  |  | >8 µM |
| CC1=C[C@@H](C#N)N2C[C@@H]1N(OS(=O)(=O)O)C2=O.[Na] [Example 2, (2S,5R)-2-cyano-4-methyl-7-oxo-1,6-diazabicyclo[3.2.1]oct-3-en-6-yl hydrogen sulfate sodium salt] | 100 µg/mL | 12.5 µg/mL | 100 µg/mL | > 200 µg/mL | 25 µg/mL | 3.13 µg/mL | 100 µg/mL | 64 µg/mL | > 64 µg/mL | > 64 µg/mL | > 64 µg/mL | 100 µg/mL |  |
| CC1=C[C@@H](C(N)=O)N2C[C@@H]1N(OS(=O)(=O)O)C2=O.[Na] [Example 1, (2S,5R)-2-carbamoyl-4-methyl-7-oxo-1,6-diazabicyclo[3.2.1]oct-3-en-6-yl hydrogen sulfate sodium salt] | 50 µg/mL |  | 50 µg/mL | 200 µg/mL | 6.25 µg/mL | 3.13 µg/mL | > 200 µg/mL | 8 µg/mL | 64 µg/mL | > 64 µg/mL | > 64 µg/mL | 25 µg/mL |  |
| CC1=C[C@@H](C(=O)NCc2cc(=O)c(O)c[nH]2)N2C[C@@H]1N(OS(=O)(=O)O)C2=O [Example 8, (2S,5R)-2-((5-hydroxy-4-oxo-1,4-dihydropyridin-2-yl)methylcarbamoyl)-4-methyl-7-oxo-1,6-diazabicyclo[3.2.1]oct-3-en-6-yl hydrogen sulfate sodium salt] |  |  |  |  |  |  |  | > 16 µg/mL | > 16 µg/mL | > 16 µg/mL | > 16 µg/mL |  |  |

Next, values leading:

| MIC (Escherichia coli) | MIC (Haemophilus influenzae) | MIC (Klebsiella pneumoniae) | MIC (Pseudomonas aeruginosa) | MIC (Streptococcus pneumoniae) | MIC (Streptococcus pyogenes) | MIC (S. aureus (MRSA)) | MIC [1] | MIC [2] | MIC [3] | MIC [4] | MIC (S. aureus (MSSA)) | MIC Klebsiella pneumoniae KPC2 [5] | SMILES |
| --- | --- | --- | --- | --- | --- | --- | --- | --- | --- | --- | --- | --- | --- |
| 100 µg/mL | 100 µg/mL | 50 µg/mL | > 200 µg/mL | 25 µg/mL | 25 µg/mL | > 200 µg/mL | 64 µg/mL | > 64 µg/mL | > 64 µg/mL | > 64 µg/mL |  |  | COC[C@@H]1C=C(C(N)=O)[C@@H]2CN1C(=O)N2OS(=O)(=O)O [Example 12, (2S,5R)-4-carbamoyl-2-(methoxymethyl)-7-oxo-1,6-diazabicyclo[3.2.1]oct-3-en-6-yl hydrogen sulfate, monosodium salt] |
|  |  |  |  |  |  |  | > 16 µg/mL | > 16 µg/mL | > 16 µg/mL | > 16 µg/mL |  |  | COCC1=C[C@@H](C(N)=O)N2C[C@@H]1N(OS(=O)(=O)[O-])C2=O.[Na+] [Example 9, (2S,5R)-2-carbamoyl-4-(methoxymethyl)-7-oxo-1,6-diazabicyclo[3.2.1]oct-3-en-6-yl hydrogen sulfate sodium salt] |
| > 200 µg/mL | 3.13 µg/mL | > 200 µg/mL | > 200 µg/mL | 50 µg/mL | 50 µg/mL | > 200 µg/mL |  |  |  |  | > 200 µg/mL |  | CC1=C[C@@H](C(=O)NC2CCNCC2)N2C[C@@H]1N(OS(=O)(=O)O)C2=O [Example 3, (2S,5R)-4-methyl-7-oxo-2-(piperidinium-4-ylcarbamoyl)-1,6-diazabicyclo[3.2.1]oct-3-en-6-yl sulfate] |
| > 200 µg/mL | 200 µg/mL | > 200 µg/mL | > 200 µg/mL | 50 µg/mL | 100 µg/mL | > 200 µg/mL | > 16 µg/mL | > 16 µg/mL | > 16 µg/mL | > 16 µg/mL | > 200 µg/mL |  | COCC1=C[C@@H](COC)N2C[C@@H]1N(OS(=O)(=O)[O-])C2=O.[Na+] [Example 13, (2S,5R)-2,4-bis(methoxymethyl)-7-oxo-1,6-diazabicyclo[3.2.1]oct-3-en-6-yl sulfate Sodium salt] |
| > 200 µg/mL | 100 µg/mL | > 200 µg/mL | > 200 µg/mL | 100 µg/mL | 50 µg/mL | > 200 µg/mL |  |  |  |  | > 200 µg/mL |  | CC(C)C1=C[C@@H](C#N)N2C[C@@H]1N(OS(=O)(=O)O)C2=O.[Na] [Example 5, (2S,5R)-2-cyano-4-isopropyl-7-oxo-1,6-diazabicyclo[3.2.1]oct-3-en-6-yl hydrogen sulfate sodium salt] |
| > 200 µg/mL | > 200 µg/mL | > 200 µg/mL | > 200 µg/mL | > 200 µg/mL | > 200 µg/mL | > 200 µg/mL |  |  |  |  | > 200 µg/mL |  | C=C(C)C1=C[C@@H](COC)N2C[C@@H]1N(OS(=O)(=O)O)C2=O.[Na] [Example 7, (2S,5R)-2-(methoxymethyl)-7-oxo-4-(prop-1-en-2-yl)-1,6-diazabicyclo[3.2.1]oct-3-en-6-yl hydrogen sulfate sodium salt] |
